Legend:
[1] = test system: pGL3(CAGA)12 reporter gene expression in A-204 cells; experiment: A-204 reporter gene assay, stimulation by factors without inhibitors; format: cell-based, human; conditions: in the absence of any inhibitors
Text: An A-204 reporter gene assay was used to evaluate the effects of ActRIIB-Fc proteins and ActRIIB variant Fc fusion polypeptides on signaling by GDF-11 and activin A. Cell line: human rhabdomyosarcoma (derived from muscle). Reporter vector: pGL3(CAGA)12 (described in Dennler et al, 1998, EMBO 17: 3091-3100). The CAGA12 motif is present in TGF-beta responsive genes (e.g., PAI-1 gene), so this vector is of general use for factors signaling through SMADs.
Day 1: Split A-204 cells into 48-well plate.
Day 2: A-204 cells transfected with 10 ug pGL3(CAGA)12 or pGL3(CAGA)12(10 ug)+pRLCMV (1 pg) and Fugene.
Day 3: Add factors (diluted into medium+0.1% BSA). Inhibitors need to be preincubated with factors for 1 hr before adding to cells. Six hrs later, cells were rinsed with PBS and lysed.
This is followed by a luciferase assay.

[2] = test system: rat model of pulmonary arterial hypertension (PAH), monocrotaline-induced; experiment: Monocrotaline (MCT) rat model of pulmonary arterial hypertension; format: in vivo, Sprague Dawley rats; conditions: MCT rats; for improvement in body weight: 28 days; for improvement in body weight / decrease of right heart hypertrophy / decrease of lung weight / reduction of elevated PAP: compared to monocrotaline treated rats (vehicle); for decrease of right heart hypertrophy / decrease of lung weight / reduction of elevated PAP: day 28; for decrease of right heart hypertrophy: RV/LV+S; for smooth muscle hypertrophy of pulmonary arterioles, average histopathological score: 0 (normal), 1 (minimal), 2 (mild), 3 (moderate), 4 (marked); for pulmonary arterioles completely muscularized / pulmonary arterioles non-muscularized / pulmonary arterioles partially muscularized: αSMA/elastin staining, 100 arterioles per animal
Description: The effects of an ActRIIA-mFc fusion protein (ActRIIA-mFc homodimer as described in Example 1), an ALK4-Fc-ActRIIB-Fc heterodimer (as described in Examples 12 and 13), and sildenafil (a phosphodiesterase-5 inhibitor approved for the treatment of PAH) were examined in a rat model of pulmonary arterial hypertension (PAH). In this model, Sprague Dawley rats received a […] injection of monocrotaline (MCT) to induce PAH 24 hours prior to start of therapy.
Rats were separated into different treatment groups (10 mice per group): 1) treatment with MCT (60 mg/kg administered i.p. as a single dose at day 1 of study) and Tris buffered saline (i.p. as 1 ml/kg, every three days) (vehicle treatment group), 2) treatment with an ActRIIA-mFc polypeptide (10 mg/kg administered i.p. every three days) and MCT (60 mg/kg administered i.p. as a single dose at day 1 of study), 3) treatment with an ALK4-Fc:ActRIIB-Fc heterodimer (10 mg/kg administered i.p. every three days) and MCT (60 mg/kg administered i.p. as a single dose at day 1 of study), 4) treatment with sildenafil (30 mg/kg administered orally twice daily) and MCT (60 mg/kg administered i.p. as a single dose at day 1 of study), and 5) control rats (Tris buffered saline administered i.p. as 1 ml/kg, every three days). Rats were treated for 28 days. Body weights were recorded prior to first dose on Day 1 and then weekly throughout the study.
(§1) On day 28, rats were anesthetized by an intraperitoneal injection of ketamine/xylazine (80/10 mg/kg). An incision was made in the neck, and a jugular vein was isolated and ligated anteriorly. A fluid-filled pressure catheter was introduced into the right jugular vein to measure pulmonary artery pressure (PAP). Another incision was made in the inguinal region, and femoral artery was isolated and ligated anteriorly. A Millar pressure catheter was introduced into a femoral artery to measure systolic arterial pressure, diastolic pressure, and heart rate. Mean arterial pressure and right PAP were monitored using the Notocord HEM (Croissy sur Seine, Frnace) v3.5 data capture system for approximately 5-10 minutes until stable measurements were obtained. During the measurements, rats were maintained at approximately 37° C. on a heating pad and body temperature was monitored throughout the procedure with a rectal temperature probe. At the conclusion of the procedure, rats were euthanized, and the hearts and lungs were removed. The entire heart was weighed. Next, the atria were removed and the left ventricle with septum (LV+S) was separated from the right ventricle (RV). The ventricles were weighed separately. Hypertrophy was assessed, in part, by calculating RV/LV+S. The lungs were also weighed.
(§2) Similar trends were observed on vessel muscularity based on histopathologic scoring. After staining tissue samples to detect αSMA/elastin, 100 pulmonary arterioles, between 10 μm and 50 m in size, per animal were categorized as non-muscularized, partially muscularized, or completely muscularized. Pulmonary arterioles from vehicle treated rats were determined to be 62.3% completely muscularized, 36.4% partially muscularized, and 1.4% non-muscularized. […] Histopathological scoring of smooth muscle hypertrophy of pulmonary arterioles were also recorded as follows: 0 (normal), 1 (minimal), 2 (mild), 3 (moderate), or 4 (marked).

[3] = test system: Sugen Hypoxia model of PAH; experiment: Sugen Hypoxia rat model of PAH (semaxanib/hypoxia); format: in vivo; conditions: Sugen Hypoxia rats; for decrease of right heart hypertrophy / reduction of mean pulmonary arterial pressure: day 28, compared to vehicle treated animals; for smooth muscle hypertrophy of pulmonary arterioles, average histopathological score: 0 (normal), 1 (minimal), 2 (mild), 3 (moderate), 4 (marked); for pulmonary arterioles completely muscularized / pulmonary arterioles non-muscularized / pulmonary arterioles partially muscularized: αSMA/elastin staining, 100 arterioles per animal
Description: The effects of an ActRIIA-mFc fusion protein (ActRIIA-mFc homodimer as described in Example 1 and sildenafil (a phosphodiesterase-5 inhibitor approved for the treatment of PAH) were further examined the Sugen Hypoxia model of PAH. In this model, rats receive daily doses of semaxanib and are placed in a low oxygen environment (approximately 13% oxygen) to induce PAH 24 hours prior to start of therapy.
Rats were separated into different treatment groups (10 mice per group): 1) treatment with semaxanib (200 mg/kg administered s.c. as a single dose daily)/hypoxia and Tris buffered saline (administered i.p. as 1 ml/kg, every three days) (vehicle treatment group), 2) treatment with an ActRIIA-mFc polypeptide (10 mg/kg administered i.p. every three days) and semaxanib (200 mg/kg administered s.c. as a single dose daily)/hypoxia, 3) treatment with sildenafil (30 mg/kg administered orally twice daily) and semaxanib (200 mg/kg administered s.c. as a single dose daily)/hypoxia, and 4) control rats (Tris buffered saline administered i.p. as 1 ml/kg, every three days). Rats were treated for 28 days. Body weights were recorded prior to first dose on Day 1 and then weekly throughout the study.
as §1
as §2, with “[…]” for “μm”, “72.5%” for “62.3%”, “27.4%” for “36.4%”, “0.1%” for “1.4%”

activin A = target: T1, activin A (Homo sapiens, UniProt P08476); experiment: Biacore ligand affinity of ActRIIB-hFc forms, steady-state affinity fit; format: binding
T1 sequence (P08476 311-426): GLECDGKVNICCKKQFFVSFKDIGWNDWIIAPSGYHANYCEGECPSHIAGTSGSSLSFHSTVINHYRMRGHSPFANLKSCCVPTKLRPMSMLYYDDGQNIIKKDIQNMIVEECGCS
Description: (§3) Affinities of several ligands for ActRIIB(25-131)-hFc and its full-length counterpart ActRIIB(20-134)-hFc were evaluated in vitro with a Biacore™ instrument, and the results are summarized in Table 8 below. Kd values were obtained by steady-state affinity fit due to very rapid association and dissociation of the complex, which prevented accurate determination of kon and koff. ActRIIB(25-131)-hFc bound, for example, activin A, activin B, and GDF11 with high affinity.
(§4) The affinity of ActRIIB variants and other ActRIIB-hFc proteins for several ligands was evaluated in vitro with a Biacore™ instrument. Kd values were obtained by steady-state affinity fit due to the very rapid association and dissociation of the complex, which prevented accurate determination of kon and koff.

GDF11 = target: T2, GDF11 (Homo sapiens, UniProt O95390); experiment: as above; format: binding
T2 sequence (O95390 299-407): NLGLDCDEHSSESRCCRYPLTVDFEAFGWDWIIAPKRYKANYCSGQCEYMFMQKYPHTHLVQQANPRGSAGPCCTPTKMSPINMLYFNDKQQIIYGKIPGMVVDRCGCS
Description: as §3, §4

activin B = target: T3, activin B (Homo sapiens, UniProt P09529); experiment: as above; format: binding
T3 sequence (P09529 293-407): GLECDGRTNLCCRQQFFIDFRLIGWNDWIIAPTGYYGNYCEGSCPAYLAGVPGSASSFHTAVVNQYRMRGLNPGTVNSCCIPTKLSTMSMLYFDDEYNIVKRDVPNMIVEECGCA
Description: as §3, §4

Row | Molecule | ED50 [1] [ng/mL] | stimulation of reporter gene expression [1] [fold] | improvement in body weight [2] | decrease of right heart hypertrophy [2] [%] | decrease of lung weight [2] [%] | reduction of elevated PAP [2] [%] | smooth muscle hypertrophy of pulmonary arterioles, average histopathological score [2] | pulmonary arterioles completely muscularized [2] [%] | pulmonary arterioles non-muscularized [2] [%] | pulmonary arterioles partially muscularized [2] [%] | decrease of right heart hypertrophy [3] [%] | reduction of mean pulmonary arterial pressure [3] [%] | smooth muscle hypertrophy of pulmonary arterioles, average histopathological score [3] | pulmonary arterioles completely muscularized [3] [%] | pulmonary arterioles non-muscularized [3] [%] | pulmonary arterioles partially muscularized [3] [%] | further results
1 | GDF-11: TGF-beta superfamily ligand added as factor in the A-204 reporter gene assay | ~1.5 | 16 | – | – | – | – | – | – | – | – | – | – | – | – | – | – | –
2 | activin A: TGF-beta superfamily ligand added as factor in the A-204 reporter gene assay | ~2 | 10 | – | – | – | – | – | – | – | – | – | – | – | – | – | – | –
3 | ActRIIA-mFc: extracellular domain of human ActRIIa fused to a mouse Fc domain with a minimal linker; homodimer | – | – | did not show improvement in body weight | 47.1 | 18.4 | 68 | 1.6 | 25.8 | 7.3 | 66.9 | 53.5 | 51.3 | 1.4 | 29.3 | 1.4 | 69.3 | –
4 | ActRIIB(25-131)-hFc: human ActRIIB extracellular domain with N- and C-terminal truncations (residues 25-131) fused to human Fc via three glycines | – | – | – | – | – | – | – | – | – | – | – | – | – | – | – | – | activin A binding (activin A; Biacore): high affinity; Kd (activin A; Table 12, Kd by steady-state affinity fit, read-out: Activin A (Kd e−11)): 0.018 nM; GDF11 binding (GDF11; Biacore): high affinity; Kd (GDF11; Table 12, Kd by steady-state affinity fit, read-out: GDF11 (Kd e−11)): 0.031 nM; activin B binding (activin B; Biacore): high affinity; Kd (activin B; Table 12, Kd by steady-state affinity fit, read-out: Activin B (Kd e−11)): 0.012 nM
5 | CCCc1nn(C)c2c(=O)[nH]c(-c3cc(S(=O)(=O)N4CCN(C)CC4)ccc3OCC)nc12 [sildenafil, reference compound] | – | – | did not have any improvement in body weight | 18.5 | 10 | 30 | 3 | 57.9 | 0.9 | 41.6 | 10 | 22.4 | 3 | 67.4 | 1.0 | 31.6 | –
